One experiment concerns the target c-fms (Homo sapiens (Human), UniProt P07333). As to the kind of experiment: Autophosphorylation, fluorescence polarization competition immunoassay for c-fms inhibition. To be noted: averages of three independent measurements; read-out: 1 nM c-fms; peptide Pi assay IC-50. Format: biochemical. On the procedure:
Fluorescence Polarization Competition Immunoassay
The assay buffer used was 100 mM 4-(2-hydroxyethyl)piperazine 1-ethanesulfonic acid (HEPES), pH 7.5, 1 mM 1,4-dithio-DL-threitol (DTT), 0.01% (v/v) Tween-20. Compounds were diluted in assay buffer containing 4% dimethylsulfoxide (DMSO) just prior to the assay. […] The kinase reaction was initiated by adding 2 μL of 5 mM ATP (Sigma) in assay buffer. […] Control reactions were ran in each plate: in positive and negative control wells, assay buffer (made 4% in DMSO) was substituted for the compound; in addition, positive control wells received 1.2 μL of 50 mM ethylenediaminetetraaceticacid (EDTA).
The plates were incubated at room temperature for 45 min. At the end of the incubation, the reaction was quenched with 1.2 μL of 50 mM EDTA (EDTA was not added to the positive control wells at this point; see above). Following a 5-min incubation, each well received 10 μL of a 1:1:3 mixture of anti-phosphotyrosine antibody, 10×, PTK green tracer, 10× (vortexed), FP dilution buffer, respectively (all from PanVera, cat. # P2837). The plate was covered, incubated for 30 min at room temperature and the fluorescence polarization was read on the Analyst. The instrument settings were: 485 nm excitation filter; 530 nm emission filter; Z height: middle of well; G factor: 0.93. […] The reported IC50 values are averages of three independent measurements.

The test system of experiment [1] is mouse bone-marrow derived macrophages (BMDM). As to the kind of experiment: CSF-1-driven mouse bone-marrow derived macrophages proliferation assay (BrDU incorporation). To be noted: 30 hrs culture, read-out: mCSF driven proliferation BMDM (Mouse) IC-50. Format: cell-based. On the procedure:
CSF-1-Driven Mouse Bone-Marrow Derived Macrophages Assay
Macrophages are derived by culturing mouse bone marrow in alpha-MEM supplemented with 10% FCS and 50 ng/ml recombinant mouse CSF-1 in bacteriologic dishes. On the sixth day, macrophages are detached from dishes, washed, and resuspended to 0.05 million cells/ml in alpha-MEM containing 10% FCS. One hundred ul of cell suspension are distributed per well into 96 well culture plates. Wells are further supplemented with the addition of 50 ul media containing 15 ng/ml CSF-1, 3 uM Indomethacin, and 3× of a dilution series of test compounds. The cells are cultured for 30 hrs at 37 degrees and 5% CO2. During the final six hours, cultures are supplemented with an additional 30 ul of media containing a 1:500 dilution of bromodeoxyuridine (BrDU). At the end of the culture period, the plates are spun at 1000 RPM for 1 minute and 130 ul of media is removed with a pipet and replaced with 150 ul of fixative solution for 1 hour @ room temperature. The fixative is then dispelled from the plates and the plates allowed to air dry. Incorporation of BrDU into the fixed, dried cells is quantified using a specific ELISA.

Structures are written as SMILES.

c-fms, sequence (P07333 20-972): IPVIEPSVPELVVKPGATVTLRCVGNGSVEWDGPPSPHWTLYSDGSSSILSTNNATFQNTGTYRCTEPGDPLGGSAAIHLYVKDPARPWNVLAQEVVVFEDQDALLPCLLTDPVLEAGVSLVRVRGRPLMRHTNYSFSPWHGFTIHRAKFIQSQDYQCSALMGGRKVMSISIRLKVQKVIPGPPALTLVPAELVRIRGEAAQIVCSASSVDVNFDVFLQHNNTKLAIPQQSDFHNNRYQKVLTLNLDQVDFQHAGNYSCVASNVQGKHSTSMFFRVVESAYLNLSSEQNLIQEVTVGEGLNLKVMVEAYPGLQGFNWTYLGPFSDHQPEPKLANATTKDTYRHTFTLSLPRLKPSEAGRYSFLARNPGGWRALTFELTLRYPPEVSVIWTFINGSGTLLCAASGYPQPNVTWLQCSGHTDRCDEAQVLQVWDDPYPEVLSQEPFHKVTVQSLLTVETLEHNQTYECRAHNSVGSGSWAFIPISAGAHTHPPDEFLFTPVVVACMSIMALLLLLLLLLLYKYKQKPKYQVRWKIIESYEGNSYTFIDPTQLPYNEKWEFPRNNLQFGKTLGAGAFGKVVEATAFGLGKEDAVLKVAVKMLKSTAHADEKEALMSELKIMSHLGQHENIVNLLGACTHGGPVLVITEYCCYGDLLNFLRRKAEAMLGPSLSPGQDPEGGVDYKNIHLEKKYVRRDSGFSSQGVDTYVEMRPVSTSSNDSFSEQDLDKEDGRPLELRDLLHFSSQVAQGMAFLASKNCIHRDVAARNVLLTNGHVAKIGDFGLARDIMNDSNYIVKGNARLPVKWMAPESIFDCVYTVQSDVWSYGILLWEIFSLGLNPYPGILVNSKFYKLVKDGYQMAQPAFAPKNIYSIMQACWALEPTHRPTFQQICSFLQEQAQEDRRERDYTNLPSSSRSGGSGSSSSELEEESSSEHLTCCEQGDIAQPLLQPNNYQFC

On to `CC1(C)CC=C(c2cc(C3CCC(N4CCOCC4)CC3)ccc2NC(=O)c2nc(C#N)c[nH]2)CC1` (stereo not drawn) [Example 27, 4-Cyano-1H-imidazole-2-carboxylic acid [2-(4,4-dimethyl-cyclohex-1-enyl)-4-(4-morpholin-4-yl-cyclohexyl)-phenyl]-amide], for which the IC50 on c-fms was found to be 1.9 nM; in experiment [1], 16 nM.

As to `CC1(C)CC=C(c2cc(C3(C#N)CCCCC3)ccc2NC(=O)c2nc(C#N)c[nH]2)CC1` [Example 14, 4-Cyano-1H-imidazole-2-carboxylic acid [4-(1-cyano-cyclohexyl)-2-(4,4-dimethyl-cyclohex-1-enyl)-phenyl}-amide], the IC50 on c-fms stood at 20 nM; in experiment [1], 150 nM.

On to `CC1(C)CC=C(c2cc(C3(O)CCCC3)ccc2NC(=O)c2nc(C#N)c[nH]2)CC1` [Example 3, 4-Cyano-1H-imidazole-2-carboxylic acid [2-(4,4-dimethyl-cyclohex-1-enyl)-4-(1-hydroxy-cyclopentyl)-phenyl]-amide], for which the IC50 at c-fms is 2.3 nM; in experiment [1], 11.7 nM.

Take `CC1(C)CC=C(c2cc(C3(C#N)CC3)ccc2NC(=O)c2nc(C#N)c[nH]2)CC1` [Example 4, 4-Cyano-1H-imidazole-2-carboxylic acid [4-(1-cyano-cyclopropyl)-2-(4,4-dimethyl-cyclohex-1-enyl)-phenyl]-amide]: the IC50 was found to be 9.5 nM at c-fms and 99 nM in experiment [1].

Consider `CC1(C)CC=C(c2cc([C@]3(O)CC[C@H](N4CCOCC4)CC3)ccc2NC(=O)c2nc(C#N)c[nH]2)CC1` [Example 45, 4-Cyano-1H-imidazole-2-carboxylic acid [2-(4,4-dimethyl-cyclohex-1-enyl)-4-(cis-1-hydroxy-trans-4-morpholin-4-yl-cyclohexyl)-phenyl]-amide], for which the IC50 in experiment [1] is 8.5 nM.

Regarding `CC1(C)CC=C(c2cc([C@]3(O)CC[C@@H](N4CCOCC4)CC3)ccc2NC(=O)c2nc(C#N)c[nH]2)CC1` [Example 44, 4-Cyano-1H-imidazole-2-carboxylic acid [2-(4,4-dimethyl-cyclohex-1-enyl)-4-(cis-1-hydroxy-cis-4-morpholin-4-yl-cyclohexyl)-phenyl]-amide], in experiment [1], the IC50 is 2.8 nM.

`CC1(C)CC=C(c2cc(C3(O)CCCCC3)ccc2NC(=O)c2nc(C#N)c[nH]2)CC1` [Example 1, 4-Cyano-1H-imidazole-2-carboxylic acid [2-(4,4-dimethyl-cyclohex-1-enyl)-4-(1-hydroxy-cyclohexyl)-phenyl]-amide]: the IC50 on c-fms amounted to 5.9 nM; in experiment [1], 72 nM.

In the case of `CN1CCN(C2CCC(c3ccc(NC(=O)c4nc(C#N)c[nH]4)c(C4=CCC(C)(C)CC4)c3)CC2)CC1` (stereo not drawn) [Example 28, 4-Cyano-1H-imidazole-2-carboxylic acid {2-(4,4-dimethyl-cyclohex-1-enyl)-4-[4-(4-methyl-piperazin-1-yl)-cyclohexyl]-phenyl}-amide], the IC50 at c-fms came to 0.99 nM; in experiment [1] it was 10.2 nM.

Turning to `CC1(C)CC=C(c2cc([C@]3(O)CC[C@@H](C(=O)O)CC3)ccc2NC(=O)c2ncc(C#N)[nH]2)CC1` [Example 2, 4-[4-[(5-Cyano-1H-imidazole-2-carbonyl)-amino]-3-(4,4-dimethyl-cyclohex-1-enyl)-phenyl]-cis-4-hydroxy-cyclohexanecarboxylic acid], the results for the IC50 (on c-fms; in experiment [1]) were 0.65 nM and 87 nM, respectively.

`COCCNC1(c2ccc(NC(=O)c3nc(C#N)c[nH]3)c(C3=CCC(C)(C)CC3)c2)CCCCC1` [Example 43, 4-Cyano-1H-imidazole-2-carboxylic acid {2-(4,4-dimethyl-cyclohex-1-enyl)-4-[1-(2-methoxy-ethylamino)-cyclohexyl]-phenyl}-amide]: the IC50 was 2.9 nM at c-fms and 111 nM in experiment [1].

For the origin of these results see patent publication US9403804B2, “Inhibitors of c-fms kinase” (Janssen Pharmaceutica NV, priority 2006, dated 2016).
